Experiment [1] has as its target PI3-kinase p110-delta/p85-alpha (Homo sapiens) (UniProt P27986+O00329). In words: Inhibition of human PI3K p110delta/p85alpha assessed as residual activity at 1 uM relative to control. It is filed as protein-complex assay.
Experiment [2] concerns the target Tyrosine-protein kinase Blk (Homo sapiens) (UniProt P51451). In words: Inhibition of human BLK assessed as residual activity at 1 uM relative to control.
The target of experiment [3] is Macrophage-stimulating protein receptor (Homo sapiens) (UniProt Q04912). In words: Inhibition of human RON assessed as residual activity at 1 uM relative to control.
Experiment [4] concerns the target RAC-beta serine/threonine-protein kinase (Homo sapiens) (UniProt P31751). The experiment is described as follows: Inhibition of human PKBbeta assessed as residual activity at 1 uM relative to control.
Experiment [5] concerns the target Tyrosine-protein kinase ABL2 (Homo sapiens) (UniProt P42684). In words: Inhibition of human ARG assessed as residual activity at 1 uM relative to control.
In experiment [6] the target is T1, TGF-beta receptor type-1 (Homo sapiens) (UniProt P36897).
T1 sequence (whole entry): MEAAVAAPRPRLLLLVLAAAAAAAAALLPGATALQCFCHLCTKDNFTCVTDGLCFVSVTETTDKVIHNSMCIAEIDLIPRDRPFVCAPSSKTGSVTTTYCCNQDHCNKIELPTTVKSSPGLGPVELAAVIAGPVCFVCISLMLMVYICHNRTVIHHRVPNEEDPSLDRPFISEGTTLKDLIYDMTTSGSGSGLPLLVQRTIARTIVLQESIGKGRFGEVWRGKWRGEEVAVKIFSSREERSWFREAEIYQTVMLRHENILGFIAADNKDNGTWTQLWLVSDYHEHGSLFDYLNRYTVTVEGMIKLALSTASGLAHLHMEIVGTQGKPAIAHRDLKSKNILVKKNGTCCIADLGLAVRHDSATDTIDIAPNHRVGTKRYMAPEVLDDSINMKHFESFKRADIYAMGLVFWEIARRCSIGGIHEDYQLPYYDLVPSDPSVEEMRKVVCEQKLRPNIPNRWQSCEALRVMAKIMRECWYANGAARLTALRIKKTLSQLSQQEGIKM
In words: Inhibition of human TGFBR1 assessed as residual activity at 1 uM relative to control.

Experiment [7] deals with CDK7/Cyclin H/MNAT1 (Homo sapiens) (UniProt P51946+P50613+P51948). The experiment is described as follows: Inhibition of human CDK7/cyclin H/MAT1 assessed as residual activity at 1 uM relative to control. The format is protein-complex assay.
In experiment [8] the target is Tyrosine-protein kinase Lck (Homo sapiens) (UniProt P06239). In words: Inhibition of human activated LCK assessed as residual activity at 1 uM relative to control.
Experiment [9] concerns the target Receptor-type tyrosine-protein kinase FLT3 (Homo sapiens) (UniProt P36888). In words: Inhibition of human FLT3 assessed as residual activity at 1 uM relative to control.
The target in experiment [10] is T2, Cytoplasmic tyrosine-protein kinase BMX (Homo sapiens) (UniProt P51813).
T2 sequence (whole entry): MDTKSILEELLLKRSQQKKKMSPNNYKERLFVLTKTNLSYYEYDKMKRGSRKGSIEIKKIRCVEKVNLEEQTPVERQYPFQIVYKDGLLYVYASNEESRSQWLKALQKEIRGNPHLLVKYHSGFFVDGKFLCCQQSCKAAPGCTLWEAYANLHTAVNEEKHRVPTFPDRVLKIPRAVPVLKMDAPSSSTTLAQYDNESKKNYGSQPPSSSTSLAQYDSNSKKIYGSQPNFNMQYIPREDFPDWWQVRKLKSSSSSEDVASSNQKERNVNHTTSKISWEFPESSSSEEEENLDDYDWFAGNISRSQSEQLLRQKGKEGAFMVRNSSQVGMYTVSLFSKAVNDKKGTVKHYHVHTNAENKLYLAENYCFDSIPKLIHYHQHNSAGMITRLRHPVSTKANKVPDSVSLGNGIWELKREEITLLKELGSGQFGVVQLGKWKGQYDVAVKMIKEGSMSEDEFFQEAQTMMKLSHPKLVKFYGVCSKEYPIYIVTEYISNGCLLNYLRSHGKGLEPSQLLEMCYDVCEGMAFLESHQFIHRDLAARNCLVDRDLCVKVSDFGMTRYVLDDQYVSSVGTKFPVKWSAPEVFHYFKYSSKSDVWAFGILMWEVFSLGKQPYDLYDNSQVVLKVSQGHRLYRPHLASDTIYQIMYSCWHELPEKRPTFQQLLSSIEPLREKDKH
In words: Inhibition of human BMX assessed as residual activity at 1 uM relative to control.

Experiment [11] has as its target Serine/threonine-protein kinase PAK 1 (Homo sapiens) (UniProt Q13153). In words: Inhibition of human PAK1 assessed as residual activity at 1 uM relative to control.
Experiment [12] addresses Proto-oncogene tyrosine-protein kinase Src (Homo sapiens) (UniProt P12931). The experiment is described as follows: Inhibition of human cSRC assessed as residual activity at 1 uM relative to control.
Experiment [13] deals with CDK6/cyclin D3 (Homo sapiens) (UniProt P30281+Q00534). The experiment is described as follows: Inhibition of human CDK6/cyclin D3 assessed as residual activity at 1 uM relative to control. The format is protein-complex assay.
The target of experiment [14] is Ephrin type-A receptor 5 (Homo sapiens) (UniProt P54756). The experiment is described as follows: Inhibition of human EPHA5 assessed as residual activity at 1 uM relative to control.
Ephrin type-A receptor 5 (Homo sapiens), sequence (P54756 whole entry): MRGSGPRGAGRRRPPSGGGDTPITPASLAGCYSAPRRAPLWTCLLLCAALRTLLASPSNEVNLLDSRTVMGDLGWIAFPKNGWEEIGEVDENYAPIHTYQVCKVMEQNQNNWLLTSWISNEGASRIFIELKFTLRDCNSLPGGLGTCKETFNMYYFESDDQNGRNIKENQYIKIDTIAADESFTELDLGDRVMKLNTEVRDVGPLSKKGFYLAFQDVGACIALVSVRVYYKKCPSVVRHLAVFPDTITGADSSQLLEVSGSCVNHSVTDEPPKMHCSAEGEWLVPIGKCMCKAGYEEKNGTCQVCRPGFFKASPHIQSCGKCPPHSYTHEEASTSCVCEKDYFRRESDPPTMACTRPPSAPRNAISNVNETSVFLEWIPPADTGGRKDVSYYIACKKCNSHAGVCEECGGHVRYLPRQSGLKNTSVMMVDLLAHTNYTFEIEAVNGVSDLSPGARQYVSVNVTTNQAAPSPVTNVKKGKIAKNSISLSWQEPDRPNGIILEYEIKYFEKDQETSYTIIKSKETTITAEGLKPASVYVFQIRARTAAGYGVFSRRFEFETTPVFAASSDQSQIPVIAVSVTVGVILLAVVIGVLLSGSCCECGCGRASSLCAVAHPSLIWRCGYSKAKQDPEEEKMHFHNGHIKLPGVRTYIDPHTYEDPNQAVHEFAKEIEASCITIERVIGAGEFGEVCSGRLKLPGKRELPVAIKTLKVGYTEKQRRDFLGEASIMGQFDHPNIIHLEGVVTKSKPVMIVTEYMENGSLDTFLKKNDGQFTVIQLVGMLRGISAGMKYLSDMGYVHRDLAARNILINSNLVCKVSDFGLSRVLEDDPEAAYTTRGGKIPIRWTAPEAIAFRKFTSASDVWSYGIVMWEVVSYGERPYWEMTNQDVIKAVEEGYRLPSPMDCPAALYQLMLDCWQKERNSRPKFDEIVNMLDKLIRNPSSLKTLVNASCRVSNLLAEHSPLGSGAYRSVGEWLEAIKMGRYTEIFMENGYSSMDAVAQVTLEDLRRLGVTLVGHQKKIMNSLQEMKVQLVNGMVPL
The target in experiment [15] is Tyrosine-protein kinase Fer (Homo sapiens) (UniProt P16591). In words: Inhibition of human FER assessed as residual activity at 1 uM relative to control.
Tyrosine-protein kinase Fer (Homo sapiens), sequence (P16591 whole entry, looked up): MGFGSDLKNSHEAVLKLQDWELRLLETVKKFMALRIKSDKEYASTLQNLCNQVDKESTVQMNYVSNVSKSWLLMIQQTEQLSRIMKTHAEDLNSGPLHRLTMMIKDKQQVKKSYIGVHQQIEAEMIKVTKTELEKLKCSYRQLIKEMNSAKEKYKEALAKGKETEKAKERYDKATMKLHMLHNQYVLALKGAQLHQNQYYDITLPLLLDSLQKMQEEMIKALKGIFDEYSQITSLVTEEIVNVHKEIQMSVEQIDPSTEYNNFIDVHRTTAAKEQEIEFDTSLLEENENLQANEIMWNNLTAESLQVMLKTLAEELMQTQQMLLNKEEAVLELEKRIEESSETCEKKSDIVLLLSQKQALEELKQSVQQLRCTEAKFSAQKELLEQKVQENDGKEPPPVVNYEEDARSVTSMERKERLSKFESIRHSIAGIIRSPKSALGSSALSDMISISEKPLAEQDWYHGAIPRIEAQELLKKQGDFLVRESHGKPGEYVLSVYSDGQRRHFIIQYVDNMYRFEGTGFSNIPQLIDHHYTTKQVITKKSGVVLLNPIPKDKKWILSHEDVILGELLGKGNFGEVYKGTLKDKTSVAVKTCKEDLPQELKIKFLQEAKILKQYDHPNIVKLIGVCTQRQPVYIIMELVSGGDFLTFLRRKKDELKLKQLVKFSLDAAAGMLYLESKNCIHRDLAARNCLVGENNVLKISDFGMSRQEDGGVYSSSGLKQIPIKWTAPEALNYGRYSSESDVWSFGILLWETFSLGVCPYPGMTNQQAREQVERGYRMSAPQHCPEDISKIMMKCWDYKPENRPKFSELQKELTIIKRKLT
Experiment [16] deals with ALK tyrosine kinase receptor (Homo sapiens) (UniProt Q9UM73). The experiment is described as follows: Inhibition of human ALK assessed as residual activity at 1 uM relative to control.
ALK tyrosine kinase receptor (Homo sapiens), sequence (Q9UM73 19-1620 limits assumed): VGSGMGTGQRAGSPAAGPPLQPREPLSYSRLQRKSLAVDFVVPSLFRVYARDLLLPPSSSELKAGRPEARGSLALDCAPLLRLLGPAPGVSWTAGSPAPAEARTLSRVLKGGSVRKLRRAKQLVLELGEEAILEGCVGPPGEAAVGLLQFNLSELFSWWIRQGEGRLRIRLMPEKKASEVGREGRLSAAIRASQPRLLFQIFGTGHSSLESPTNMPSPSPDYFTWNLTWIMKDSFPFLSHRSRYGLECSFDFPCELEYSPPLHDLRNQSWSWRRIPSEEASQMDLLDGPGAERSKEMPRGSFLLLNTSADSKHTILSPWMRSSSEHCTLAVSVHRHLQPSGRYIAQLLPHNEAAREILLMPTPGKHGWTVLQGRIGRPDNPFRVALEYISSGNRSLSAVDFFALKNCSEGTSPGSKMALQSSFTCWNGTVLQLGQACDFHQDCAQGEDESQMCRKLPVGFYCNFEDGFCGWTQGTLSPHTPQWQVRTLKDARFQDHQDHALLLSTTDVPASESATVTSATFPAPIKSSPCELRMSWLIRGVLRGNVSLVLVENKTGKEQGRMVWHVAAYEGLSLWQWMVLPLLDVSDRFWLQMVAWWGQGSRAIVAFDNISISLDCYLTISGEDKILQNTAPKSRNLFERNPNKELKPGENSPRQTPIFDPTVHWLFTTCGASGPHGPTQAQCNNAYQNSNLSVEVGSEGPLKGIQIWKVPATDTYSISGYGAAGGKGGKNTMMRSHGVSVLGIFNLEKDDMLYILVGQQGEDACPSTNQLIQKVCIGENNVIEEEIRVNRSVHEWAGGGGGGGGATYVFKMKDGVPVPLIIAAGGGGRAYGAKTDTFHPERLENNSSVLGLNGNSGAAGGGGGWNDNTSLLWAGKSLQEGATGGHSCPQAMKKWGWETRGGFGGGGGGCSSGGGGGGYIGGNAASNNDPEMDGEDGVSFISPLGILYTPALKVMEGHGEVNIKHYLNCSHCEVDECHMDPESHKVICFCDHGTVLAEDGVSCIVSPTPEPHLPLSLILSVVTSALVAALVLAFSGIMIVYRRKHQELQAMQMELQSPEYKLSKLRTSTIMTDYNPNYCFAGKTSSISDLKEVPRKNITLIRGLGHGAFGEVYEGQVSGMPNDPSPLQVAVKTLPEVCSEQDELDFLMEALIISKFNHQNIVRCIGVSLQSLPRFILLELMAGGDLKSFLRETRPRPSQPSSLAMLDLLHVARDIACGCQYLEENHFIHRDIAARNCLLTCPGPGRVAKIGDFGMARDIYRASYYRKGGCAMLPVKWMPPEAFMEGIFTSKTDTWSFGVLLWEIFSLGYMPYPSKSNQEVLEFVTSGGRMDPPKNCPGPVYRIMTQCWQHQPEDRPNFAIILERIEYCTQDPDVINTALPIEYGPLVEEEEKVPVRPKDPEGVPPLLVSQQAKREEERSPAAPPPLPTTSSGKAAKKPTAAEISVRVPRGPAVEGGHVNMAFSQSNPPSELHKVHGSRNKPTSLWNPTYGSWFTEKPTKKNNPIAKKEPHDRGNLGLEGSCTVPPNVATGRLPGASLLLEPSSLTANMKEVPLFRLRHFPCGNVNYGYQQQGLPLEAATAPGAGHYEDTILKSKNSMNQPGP
Experiment [17] has as its target T3, Serine/threonine-protein kinase Sgk1 (Homo sapiens) (UniProt O00141).
T3 sequence (whole entry): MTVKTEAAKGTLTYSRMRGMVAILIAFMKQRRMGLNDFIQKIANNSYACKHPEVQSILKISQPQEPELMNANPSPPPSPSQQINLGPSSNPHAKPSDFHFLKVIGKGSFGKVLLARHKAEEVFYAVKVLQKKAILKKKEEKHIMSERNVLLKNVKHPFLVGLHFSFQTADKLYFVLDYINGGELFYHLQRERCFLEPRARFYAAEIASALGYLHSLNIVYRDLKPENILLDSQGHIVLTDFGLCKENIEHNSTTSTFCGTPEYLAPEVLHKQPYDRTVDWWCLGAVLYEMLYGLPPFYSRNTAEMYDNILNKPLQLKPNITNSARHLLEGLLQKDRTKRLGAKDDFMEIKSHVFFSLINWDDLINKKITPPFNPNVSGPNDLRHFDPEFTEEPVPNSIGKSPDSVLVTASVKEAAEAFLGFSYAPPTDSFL
The experiment is described as follows: Inhibition of human SGK assessed as residual activity at 1 uM relative to control.

Experiment [18] deals with Fibroblast growth factor receptor 1 (Homo sapiens), P11362 [V561M]. In words: Inhibition of human FGFR1 V561M mutant assessed as residual activity at 1 uM relative to control.
Fibroblast growth factor receptor 1 (Homo sapiens), P11362 [V561M], sequence (P11362 whole entry V561M): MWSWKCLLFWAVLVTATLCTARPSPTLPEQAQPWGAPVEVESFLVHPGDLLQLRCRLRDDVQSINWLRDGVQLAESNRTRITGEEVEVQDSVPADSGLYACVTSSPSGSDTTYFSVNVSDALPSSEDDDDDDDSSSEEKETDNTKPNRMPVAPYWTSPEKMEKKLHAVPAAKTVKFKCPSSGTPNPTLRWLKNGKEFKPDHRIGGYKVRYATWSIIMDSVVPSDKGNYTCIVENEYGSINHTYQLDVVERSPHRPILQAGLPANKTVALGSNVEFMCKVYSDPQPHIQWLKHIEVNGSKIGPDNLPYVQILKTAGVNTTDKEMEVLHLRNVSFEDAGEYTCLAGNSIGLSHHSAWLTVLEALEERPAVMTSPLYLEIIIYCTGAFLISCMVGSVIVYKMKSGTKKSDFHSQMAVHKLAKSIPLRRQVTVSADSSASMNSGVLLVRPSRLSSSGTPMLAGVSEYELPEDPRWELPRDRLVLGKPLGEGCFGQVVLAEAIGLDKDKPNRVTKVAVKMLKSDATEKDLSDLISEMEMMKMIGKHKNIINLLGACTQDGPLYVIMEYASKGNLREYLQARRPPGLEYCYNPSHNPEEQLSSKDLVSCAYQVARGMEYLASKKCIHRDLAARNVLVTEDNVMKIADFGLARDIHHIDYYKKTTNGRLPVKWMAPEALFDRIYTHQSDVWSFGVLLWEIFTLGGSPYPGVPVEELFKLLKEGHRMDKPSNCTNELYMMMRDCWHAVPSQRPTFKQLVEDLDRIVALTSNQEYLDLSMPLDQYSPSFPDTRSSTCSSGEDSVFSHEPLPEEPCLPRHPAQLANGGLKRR
Experiment [19] concerns the target Mitogen-activated protein kinase 14 (Homo sapiens) (UniProt Q16539). The experiment is described as follows: Inhibition of human SAPK2alpha assessed as residual activity at 1 uM relative to control.

Structures are written as SMILES.

Tyrosine-protein kinase Blk (Homo sapiens), sequence (P51451 2-505 limits assumed): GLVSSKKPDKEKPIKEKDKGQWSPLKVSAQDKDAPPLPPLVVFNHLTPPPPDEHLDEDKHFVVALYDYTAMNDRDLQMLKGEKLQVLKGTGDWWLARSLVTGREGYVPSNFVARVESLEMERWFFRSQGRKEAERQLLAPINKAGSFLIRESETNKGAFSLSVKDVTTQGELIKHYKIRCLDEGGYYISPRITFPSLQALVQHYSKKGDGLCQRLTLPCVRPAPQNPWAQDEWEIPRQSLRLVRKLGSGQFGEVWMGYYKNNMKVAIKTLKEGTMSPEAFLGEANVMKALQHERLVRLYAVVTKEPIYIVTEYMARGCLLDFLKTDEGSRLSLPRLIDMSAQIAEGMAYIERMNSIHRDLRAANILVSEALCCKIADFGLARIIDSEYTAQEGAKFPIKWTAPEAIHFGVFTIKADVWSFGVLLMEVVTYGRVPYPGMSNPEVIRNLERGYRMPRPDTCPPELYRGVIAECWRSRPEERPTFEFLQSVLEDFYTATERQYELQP

Turning to `COc1ccc(-c2nc3cc(-c4csc(C(=O)NCC(C)(C)C)c4)cnc3[nH]2)cc1`, the Activity in experiment [1] stood at 91%; in [2], 48%; in [3] it was 122%; in experiment [4] it was 90%; in experiment [5], 60%; in experiment [6], 111%. Moreover, the Activity in [7] is 100%; in [8] it was 71%; in experiment [9] it was 30%; in [10], 100%; in experiment [11], 94%; in [12], 85%. Moreover, the Activity in experiment [13] was determined as 105%; in [14], 77%; in [15], 100%; in experiment [16], 101%; in experiment [17], 82%; in experiment [18] it was 104%. The Activity in experiment [19] was 93%.

In the case of `COc1ccc(-c2nc3cc(-c4csc(C(=O)NCCC(C)C)c4)cnc3[nH]2)cc1`, the Activity is 95% in [1]; 13% in [2]; 132% in experiment [3]; 93% in experiment [4]; 52% in [5]; 85% in experiment [6]. Besides, the Activity is 95% in [7]; 47% in experiment [8]; 18% in experiment [9]; 105% in [10]; 96% in [11]; 47% in experiment [12]. Also, the Activity was determined as 102% in [13]; 76% in experiment [14]; 104% in [15]; 88% in experiment [16]; 78% in experiment [17]; 90% in experiment [18]. The Activity in [19] was determined as 111%.

In the case of `COc1ccc(-c2nc3cc(-c4csc(C(=O)NCC(C)C)c4)cnc3[nH]2)cc1`, the Activity in experiment [1] turned out to be 94%; in experiment [2], 25%; in experiment [3], 128%; in experiment [4], 98%; in experiment [5] it was 38%; in [6], 104%. Besides, the Activity in [7] was found to be 91%; in experiment [8] it was 56%; in experiment [9] it was 6%; in experiment [10], 92%; in experiment [11] it was 105%; in experiment [12], 50%. In addition, the Activity turned out to be 103% in experiment [13]; 72% in experiment [14]; 111% in [15]; 99% in [16]; 102% in experiment [17]; 85% in [18]. Also, the Activity in experiment [19] is 107%.

The record behind these values is ChEMBL document CHEMBL3124838, “Discovery of 6-aryl-azabenzimidazoles that inhibit the TBK1/IKK-ε kinases” (Bioorg Med Chem Lett, 2014).
